Test results: ChEMBL document CHEMBL1148184, “Gloiosiphones A and B, Novel Metabolites from the Red Marine Alga Gloiosiphonia verticillaris” (J Nat Prod, 1993)
The source made the active and inactive calls.

Experiments:
Format in all cases: functional, organism-based
Escherichia coli = assay: Antibacterial activity against Escherichia coli ATCC 11775
Salmonella typhimurium = assay: Antibacterial activity against Salmonella Typhimurium ATCC 14028; conditions: Salmonella enterica subsp. enterica serovar Typhimurium
Bacillus subtilis = assay: Antibacterial activity against Bacillus subtilis ATCC 6081
Staphylococcus aureus = assay: Antibacterial activity against Staphylococcus aureus ATCC 12600

Measured: Activity

COC[C@@]1(O)C(=O)CC[C@@]12CC(OC)=C(OC)C2=O
inactive: Escherichia coli | Salmonella typhimurium | Bacillus subtilis | Staphylococcus aureus

COCC1(O)OCCC1=O (stereo not drawn)
inactive: Escherichia coli | Salmonella typhimurium | Bacillus subtilis | Staphylococcus aureus
